This experiment concerns cultured nerve cells (cerebral cortex). Kind of experiment: cells. The class given is cell-based, Wistar rat. The settings on record: Rattus norvegicus, Cerebral cortex neuron.
Where [1] appears, read: 10 mM glutamate, 24 hours at 37° C., LDH leakage, read-out: ED50 (the source's name).

Read-outs that look alike come from different tables or passages of the source.

This note sets out measurements from patent US5972953A, “Brain cell protective agent” (priority 1993, dated 1999).

As to `O=C(/C=C/c1cccc(C(F)(F)F)c1)N(CCc1ccccc1)[C@@H]1CC[C@@]2(O)[C@H]3Cc4ccc(O)c5c4[C@@]2(CCN3CC2CC2)[C@H]1O5` [Compound 67, 17-cyclopropylmethyl-3,14β-dihydroxy-4,5α-epoxy-6β-[N-(2-phenethyl)-3-trifluoromethylcinnamamido]morphinan], under setting [1], the EC50 was determined as 100 nM.

With `O=C(/C=C/c1cccc(C(F)(F)F)c1)N(CC1CCCCC1)[C@@H]1CC[C@@]2(O)[C@H]3Cc4ccc(O)c5c4[C@@]2(CCN3CC2CC2)[C@H]1O5` [Compound 68, 17-cyclopropylmethyl-3,14β-dihydroxy-4,5α-epoxy-6β-(N-cyclohexylmethyl-3-trifluoromethylcinnamamido)morphinan], where the note is “24 h, read-out: ED50”, the EC50 is 100 nM. In the case of `O=C(Cc1ccc(Cl)c(Cl)c1)N[C@H]1CC[C@@]2(O)[C@H]3Cc4ccc(O)c5c4[C@@]2(CCN3CC2CC2)[C@H]1O5` [Compound 36, 17-cyclopropylmethyl-3,14β-dihydroxy-4,5α-epoxy-6α-(3,4-dichlorophenylacetoamido) morphinan], the EC50 under setting [1] is 1010 nM. `O=C(CCCCCc1ccccc1)N(CC1CCCCC1)[C@@H]1CC[C@@]2(O)[C@H]3Cc4ccc(O)c5c4[C@@]2(CCN3CC2CC2)[C@H]1O5` [Compound 71, 17-cyclopropylmethyl-3,14β-dihydroxy-4,5α-epoxy-6β-(N-cyclohexylmethyl-6-phenylhexanoamido)morphinan]: the EC50 under setting [1] turned out to be 100 nM. As for `CC(C)CN(Cc1ccccc1)[C@@H]1CC[C@@]2(O)[C@H]3Cc4ccc(O)c5c4[C@@]2(CCN3CC2CC2)[C@H]1O5` [Compound 7, 17-cyclopropylmethyl-3,14β-dihydroxy-4,5α-epoxy-6β-(N-isobutylbenzylamino)morphinan], the EC50 under setting [1] was 320 nM. On to `C=CCN1CC[C@]23c4c5ccc(O)c4O[C@H]2[C@H](N(C)C(=O)Cc2ccc(Cl)c(Cl)c2)CC[C@@]3(O)[C@H]1C5` [Compound 93, 17-allyl-3,14β-dihydroxy-4,5α-epoxy-6β-(N-methyl-3,4-dichlorophenylacetoamido)morphinan], for which the EC50 under setting [1] was found to be 1500 nM. Turning to `CN(C(=O)/C=C/c1ccsc1)[C@@H]1CC[C@@]2(O)[C@H]3Cc4ccc(O)c5c4[C@@]2(CCN3CC2CC2)[C@H]1O5` (relative stereo) [Compound 54, 17-cyclopropylmethyl-3,14β-dihydroxy-4,5α-epoxy-6β-[N-methyl-trans-3-(3-thienyl)acrylamido]morphinan], the EC50 under setting [1] came to 13500 nM. In the case of `CC(C)CN(C(=O)CCCCCCCCCCc1ccccc1)[C@@H]1CC[C@@]2(O)[C@H]3Cc4ccc(O)c5c4[C@@]2(CCN3CC2CC2)[C@H]1O5` [Compound 60, 17-cyclopropylmethyl-3,14β-dihydroxy-4,5α-epoxy-6β-(N-isobutyl-11-phenylundecanoamido)morphinan], the EC50 under setting [1] is 90 nM. Take `CC(C)CN(C(=O)/C=C/c1cccc(C(F)(F)F)c1)[C@@H]1CC[C@@]2(O)[C@H]3Cc4ccc(O)c5c4[C@@]2(CCN3CC2CC2)[C@H]1O5` [Compound 65, 17-cyclopropylmethyl-3,14β-dihydroxy-4,5α-epoxy-6β-(N-isobutyl-3-trifluoromethylcinnamamido)morphinan]: the EC50 (24 h, read-out: ED50) was 310 nM.

`CN(C(=O)Cc1ccccc1)[C@@H]1CC[C@@]2(O)[C@H]3Cc4ccc(O)c5c4[C@@]2(CCN3CC2CC2)[C@H]1O5` [Compound 47, 17-cyclopropylmethyl-3,14β-dihydroxy-4,5α-epoxy-6β-(N-methylphenylacetoamido)morphinan]: under setting [1], the EC50 worked out at 17100 nM. On to `CC(C)CN(C(=O)CCCCC1CCCCC1)[C@@H]1CC[C@@]2(O)[C@H]3Cc4ccc(O)c5c4[C@@]2(CCN3CC2CC2)[C@H]1O5` [Compound 62, 17-cyclopropylmethyl-3,14β-dihydroxy-4,5α-epoxy-6β-(N-isobutyl-5-cyclohexylpentanoamido)morphinan], for which the EC50 under setting [1] was found to be 140 nM. Regarding `O=C(CCCCCc1ccccc1)N(CCCc1ccccc1)[C@@H]1CC[C@@]2(O)[C@H]3Cc4ccc(O)c5c4[C@@]2(CCN3CC2CC2)[C@H]1O5` [Compound 72, 17-cyclopropylmethyl-3,14β-dihydroxy-4,5α-epoxy-6β-[N-(3-phenylpropyl)-6-phenylhexanoamido)morphinan], under setting [1], the EC50 came to 110 nM. Take `CCN(Cc1ccccc1)[C@@H]1CC[C@@]2(O)[C@H]3Cc4ccc(O)c5c4[C@@]2(CCN3CC2CC2)[C@H]1O5` [Compound 5, 17-cyclopropylmethyl-3,14β-dihydroxy-4,5α-epoxy-6β-(N-ethylbenzylamino)morphinan]: under setting [1], the EC50 worked out at 24600 nM. The same measure, in the same setting: next, `CN(C(=O)Cc1ccc2ccccc2c1)[C@@H]1CC[C@@]2(O)[C@H]3Cc4ccc(O)c5c4[C@@]2(CCN3CC2CC2)[C@H]1O5` [Compound 83, 17-cyclopropylmethyl-3,14β-dihydroxy-4,5α-epoxy-6β-(N-methyl-2-naphthylacetoamido)morphinan]: 4690 nM. As to `CCN(C(=O)/C=C/c1cccc(C(F)(F)F)c1)[C@@H]1CC[C@@]2(O)[C@H]3Cc4ccc(O)c5c4[C@@]2(CCN3CC2CC2)[C@H]1O5` [Compound 63, 17-cyclopropylmethyl-3,14β-dihydroxy-4,5α-epoxy-6β-(N-ethyl-3-trifluoromethylcinnamarido)morphinan], under setting [1], the EC50 is 1250 nM.

Take `CC(C)CN(C(=O)CCCCCCCc1ccccc1)[C@@H]1CC[C@@]2(O)[C@H]3Cc4ccc(O)c5c4[C@@]2(CCN3CC2CC2)[C@H]1O5` [Compound 59, 17-cyclopropylmethyl-3,14β-dihydroxy-4,5α-epoxy-6β-(N-isobutyl-8-phenyloctanoamido) morphinan]: the EC50 under setting [1] was 480 nM.

Turning to `CN(C(=O)c1ccccc1)[C@@H]1CC[C@@]2(O)[C@H]3Cc4ccc(O)c5c4[C@@]2(CCN3CC2CC2)[C@H]1O5` [Compound 45, 17-cyclopropylmethyl-3,14β-dihydroxy-4,5α-epoxy-6β-(N-methylbenzamido)morphinan], the EC50 under setting [1] turned out to be 3720 nM. As for `CC(C)CN(CCCCCCc1ccccc1)[C@H]1CC[C@@]2(O)[C@H]3Cc4ccc(O)c5c4[C@@]2(CCN3CC2CC2)[C@H]1O5` [Compound 97, 17-cyclopropylmethyl-3,14β-dihydroxy-4,5α-epoxy-6α-(N-isobutyl-6-phenylhexylamino)morphinan], the EC50 under setting [1] amounted to 160 nM. For the compound `CCCCN(Cc1ccccc1)[C@@H]1CC[C@@]2(O)[C@H]3Cc4ccc(O)c5c4[C@@]2(CCN3CC2CC2)[C@H]1O5` [Compound 8, 17-cyclopropylmethyl-3,14β-dihydroxy-4,5α-epoxy-6β-(N-butylbenzylamino)morphinan], the EC50 under setting [1] was found to be 1200 nM. Take `CC(=O)Oc1ccc2c3c1O[C@H]1[C@H](N(C)C(=O)/C=C/c4ccccc4)CC[C@@]4(O)[C@@H](C2)N(CC2CC2)CC[C@]314` [Compound 114, 17-cyclopropylmethyl-3-acetoxy-14β-hydroxy-4,5α-epoxy-6β-(N-methylcinnamamido)morphinan]: where the note is “24 h, read-out: ED50”, the EC50 turned out to be 60300 nM. For the compound `O=C(CCCCCc1ccccc1)N(CCCCc1ccccc1)[C@@H]1CC[C@@]2(O)[C@H]3Cc4ccc(O)c5c4[C@@]2(CCN3CC2CC2)[C@H]1O5` [Compound 73, 17-cyclopropylmethyl-3,14β-dihydroxy-4,5α-epoxy-6β-[N-(4-phenylbutyl)-6-phenylhexanoamido)morphinan], the EC50 under setting [1] worked out at 140 nM. On to `CC(=O)O[C@@]12CC[C@@H](N(C)C(=O)/C=C/c3ccccc3)[C@@H]3Oc4c(O)ccc5c4[C@@]31CCN(CC1CC1)[C@@H]2C5` [Compound 115, 17-cyclopropylmethyl-3-hydroxy-14β-acetoxy-4,5α-epoxy-6β-(N-methylcinnamamido)morphinan], for which, under setting [1], the EC50 was 5410 nM. With `O=C(/C=C/c1ccoc1)S[C@@H]1CC[C@@]2(O)[C@H]3Cc4ccc(O)c5c4[C@@]2(CCN3CC2CC2)[C@H]1O5` (relative stereo) [Compound 119, 17-cyclopropylmethyl-4,5α-epoxy-3,14β-dihydroxy-6β-[trans-3-(3-furyl)acryloylthio]morphinan], the EC50 under setting [1] was found to be 1470 nM. On the same count and under the same terms, next, `CN(C(=O)CC(=O)c1ccccc1)[C@@H]1CC[C@@]2(O)[C@H]3Cc4ccc(O)c5c4[C@@]2(CCN3CC2CC2)[C@H]1O5` [Compound 80, 17-cyclopropylmethyl-3,14β-dihydroxy-4,5α-epoxy-6β-(N-methylbenzoylacetoamido) morphinan]: 7390 nM; `COc1cccc(/C=C/C(=O)N(C)[C@@H]2CC[C@@]3(O)[C@H]4Cc5ccc(O)c6c5[C@@]3(CCN4CC3CC3)[C@H]2O6)c1` [Compound 50, 17-cyclopropylmethyl-3,14β-dihydroxy-4,5α-epoxy-6β-(N-methyl-3-methoxycinnamamido)morphinan]: 3440 nM. As to `O=C(CCc1ccccc1)O[C@H]1CC[C@@]2(O)[C@H]3Cc4ccc(O)c5c4[C@@]2(CCN3CC2CC2)[C@H]1O5` [Compound 113, 17-cyclopropylmethyl-3,14β-dihydroxy-4,5α-epoxy-6α-(3-phenylpropionyloxy)morphinanan], the EC50 under setting [1] was 530 nM. As to `Cc1cccc(/C=C/C(=O)N(CC(C)C)[C@@H]2CC[C@@]3(O)[C@H]4Cc5ccc(O)c6c5[C@@]3(CCN4CC3CC3)[C@H]2O6)c1` [Compound 57, 17-cyclopropylmethyl-3,14β-dihydroxy-4,5α-epoxy-6β-(N-isobutyl-3-methylcinnamamido)morphinan], the EC50 (24 h, read-out: ED50) was determined as 660 nM. As to `O=C(CCCCCc1ccccc1)N(CC(c1ccccc1)c1ccccc1)[C@@H]1CC[C@@]2(O)[C@H]3Cc4ccc(O)c5c4[C@@]2(CCN3CC2CC2)[C@H]1O5` [Compound 74, 17-cyclopropylmethyl-3,14β-dihydroxy-4,5α-epoxy-6β-[N-(2,2-diphenylethyl)-6-phenylhexanoamido)morphinan], under setting [1], the EC50 is 220 nM.

`CN(C(=O)Nc1ccc(Cl)c(Cl)c1)[C@H]1CC[C@@]2(O)[C@H]3Cc4ccc(O)c5c4[C@@]2(CCN3CC2CC2)[C@H]1O5` [Compound 103, 17-Cyclopropylmethyl-3,14β-dihydroxy-4,5α-epoxy-6α-[N-methyl-N'-(3,4-dichlorophenyl)ureido]morphinan]: the EC50 under setting [1] was 540 nM. Still for that read-out and setting: next, `CN(C(=O)Cc1cccc2ccccc12)[C@@H]1CC[C@@]2(O)[C@H]3Cc4ccc(O)c5c4[C@@]2(CCN3CC2CC2)[C@H]1O5` [Compound 86, 17-cyclopropylmethyl-3,14β-dihydroxy-4,5α-epoxy-6β-(N-methyl-1-naphthylacetoamido)morphinan]: 7360 nM.
